According to patent US20050019746A1, “Apoptosis-related kinase/GPCRs” (EiRx Therapeutics Limited, priority 2003, published 2005):

How the values were obtained:
TF1 cells [1] = assay: TF1 apoptosis by sub G1 analysis; format: cell-based, human; conditions: TF1, 48 h, with GM-CSF (approximately 55% in the absence)
Method: TF1 cells are cultured for 48 h in the presence or absence of GM-CSF (2 ng/ml). Cells are then harvested by centrifugation (1000 rpm, for 10 min) and washed in PBS. The pellet is resuspended in PBS (2×10^5 cells/ml) and 1 ml is then added in a dropwise fashion to ice cold 70% EtoH whilst continuously vortexing. Cells are then permeabilized by incubating at −20° C. for 24 h. To stain DNA, cells are centrifuged and washed in PBS. Cells are resuspended in 500 μl Propidium Iodide Buffer (Propidium iodide (50 μg/ml); RNAse A (50 μg/ml) for 15 min in the dark before flow cytometric analysis using a FacsCalibre (Becton Dickinson). Analysis is performed using Cell Quest software.

TF1 cells [2] = assay: TF1 apoptosis by light scatter (FSC/SSC, live gate) analysis; format: cell-based, human; conditions: TF1, 48 h, with GM-CSF 2 ng/ml (35% upon factor withdrawal)
Method: Light Scatter Analysis takes advantage of the fact that by using the laser beam of a flow cytometer one can determine the size (Forward Scatter) and granularity (Side Scatter) of a cell. The morphological changes associated with apoptosis, such as decreased size (shrinkage) and granularity affect these parameters. As a consequence, cells undergoing apoptosis will move to the left and slightly down, from the parameters of a healthy population.
TF1 cells are plated into 24 well plates (2×10^5/ml) and are cultured for 48 h in the presence or absence of GM-CSF (2 ng/ml). Cells are then harvested by centrifugation (1000 rpm, for 10 min) and washed in PBS. […] Forward and Side scatter parameters are assessed using Cell Quest software.
Culturing TF1 cells in the absence of GM-CSF induces cell death. This death induces morphological changes in the Forward and Side Scatter parameters that can be detected by FacsCalibre analysis. […]
To assess the antiapoptotic effect of BCL2 over-expression in TF1 cells, cells are transduced with either retrovirus expressing full length BCL2 coding sequence or control vector lacking BCL2. […] The percentage of transduced cells remaining in the live gate (an arbitrary region pre-set on a healthy population of TF1 cells grown in the presence of GM-CSF (2 ng/ml)) is recorded. An index of antiapoptotic activity is calculated by computing the difference in samples ±GMCSF. […]

[3] = tested on: human primary neutrophils; assay: Neutrophil apoptosis by sub G1 analysis (DNA fragmentation); format: cell-based; conditions: neutrophils cultured overnight with GM-CSF (65% without)
Method: Neutrophils are isolated from the blood as described in WO 02/04657 and resuspended at a concentration of 2×10^6/ml. Five hundred microlitres are pipetted into wells of a 24 well plate and incubated in the presence or absence of survival factors.
After this incubation, the neutrophils are carefully resuspended by gentle agitation and the total contents of the well are placed into an eppendorf and centrifuged@2800 rpm for 2 min@RT in a minifuge. The cell pellet is carefully resuspended in 300 μl of ice cold hypotonic fluorochrome solution (50 μg/ml Propidium Iodide, 0.1% Sodium Citrate and 0.1% Triton X-100) and placed in a fridge for 24 h@4° C.
Prepared samples are analysed with a FacsCalibre flow cytometer (Becton Dickinson) using double discrimination to ensure single cell suspension with Log Forward and Side Scatter Parameter acquisition.
(§1) Neutrophils are seeded at 2×10^6/ml in a 24 well plate in full culture medium (1 ml/well). A PI3K inhibitor (Ly294002) is added to the neutrophils to a final concentration of 20 μM prior to the addition of GM-CSF (50 units/ml). Control wells received either no GM-CSF or F GM-CSF (50 units/ml) in the absence of inhibitor. Neutrophils are cultured for 18 h at 37° C. prior to harvest and prepared for sub G1 analysis, as previously described.
as §1, with “An AKT” for “A PI3K”, “([1L-6-Hydroxymethyl-chiro-inositol 2-O-methyl-3-O-octadecylcarbonate] (Calbiochem))” for “(Ly294002)”, “μM and incubated for 2 h” for “μM”, “receive” for “received”, “or” for “or F”

PC3 cells [4] = assay: Cell Migration Assay (Chemicon ECM550, Boyden Chamber); format: cell-based, human; conditions: 48 hours post siRNA transfection, 24-hour migration, compared to missense and UPA controls
Method: Cells are seeded into a 6-well plate and allowed to adhere overnight at 37° C. in a humidified atmosphere containing 5% CO2 in air. Cells are next transfected with siRNA oligonucleotides, at a concentration of 2 μg/ml, against the genes of interest, as described in detail in Example 5. Transfections are continued for 4 hrs after which the transfection solution is removed and cells are refed with fresh medium and allowed incubate overnight. Transfected cells are next harvested for seeding into migration assay as described below.
The Chemicon Cell Migration Assay (ECM550) is used to quantify the number of PC3 cells that successfully migrate across a Boyden Chamber towards a chemoattractant over a 24-hour incubation period. Assessment of PC3 cell migration is performed routinely 48 hours post siRNA Transfection. The effect of reducing the expression of genes of interest is compared to that of a missense control oligomer and to the influence of UPA knockdown, which is reported in the literature to decrease PC3 cell migration. The Migration Assay is performed as per manufacturers inductions. Results are illustrated in FIGS. 39 to 41.
Cells were plated and transfected with the indicated siRNA as described above. Migration of PC3 cells was tracked using a fluorescent dye. Consequently increases in fluorescent units correlates positively with increased migration.

MCF7 cells = assay: Anchorage Independence/Soft Agar Assay, MCF7; format: cell-based, human; set-up: PERCENTAGE SURVIVAL RELATIVE TO MS, MCF7, n = 2: tested at 2 µg; conditions: soft agar
Method: (§2) The Anchorage Independence/Soft Agar Assay allows assessment of the influence of modulation of gene expression on clonal tumouroid formation by observing and quantifying tumouroid morphology and colony number over an extended period of logarithmic growth thereby ascertaining any cell death is induced.
(§3) Cells are seeded into a 6-well plate and allowed to adhere overnight at 37° C. in a humidified atmosphere containing 5% CO2 in air. Cells are next transfected with siRNA Oligomers, at a concentration of 2 μg, against the genes of interest. Transfections continued for 4 hrs after which the transfection solution is removed and cells are refed with fresh medium and allowed incubate overnight. Transfected cells are next harvested for seeding into soft agar assay as described below. Cells are seeded at 5×10^4 cells per well of a 6 well plate and incubated over a 12/14-Day period whilst proliferating in a 0.05% Agar/Medium cell suspension at 37° C. in a humidified atmosphere containing 5% CO2 in air. Colonies formed are subsequently stained with Crystal Violet, their morphology is assessed and colonies formed are enumerated at a 4× magnification.
(§4) The cytotoxic effect of each gene is determined by a reduction in colony number compared to our MS control, but any influence on the morphology of the colony is also noted.
(§5) Examples of genes with a cytotoxic effect on knockdown as detected by the soft agar assay are outlined in Table 14. Table 14 gives the percentage survival of the indicated cell lines post transfection with siRNA oligomers to target genes relative to that of the missense in an anchorage independent assay. As an internal reference, the known survival gene Survivin was also targeted by siRNA. This table illustrates the magnitude of cytotoxicity induced by the knockdown of each target gene compared to the MS control i.e. the number of colonies formed are stained with Crystal violet and enumerated visually as discussed.

HCT15 cells = assay: Anchorage Independence/Soft Agar Assay, HCT15; format: cell-based, human; set-up: PERCENTAGE SURVIVAL RELATIVE TO MS, HCT15, n = 2: tested at 2 µg; PERCENTAGE SURVIVAL RELATIVE TO MS, HCT15, n = 1: tested at 2 µg siRNA; conditions: soft agar
Method: as §2, §3, §4, §5

U251 cells = assay: Anchorage Independence/Soft Agar Assay, U251; format: cell-based, human; conditions: soft agar, experiment n = 1
Method: as §2
as §3, with “Cells are seeded at 5×10^4 cells per well of a 6 well plate and incubated over a 12/14-Day period whilst proliferating in a 0.05% Agar/Medium cell suspension at 37° C. in a humidified atmosphere containing 5% CO2 in air.” left out
as §4
(§6) Examples of genes with a cytotoxic effect on knockdown as detected by the soft agar assay are outlined in Table 14. […]

cancer cell lines = assay: Anchorage Independence/Soft Agar Assay, summary over the cell lines; format: cell-based, human; conditions: 14-day anchorage independent assay, over the cell lines examined
Method: as §2, §3, §4
As an internal reference, the known survival gene ‘Survivin’ was also targeted by siRNA.

A549 cells = assay: Anchorage Independence/Soft Agar Assay, A549; format: cell-based, human; set-up: PERCENTAGE SURVIVAL RELATIVE TO MS, A549, n = 2: tested at 2 µg; conditions: soft agar
Method: as §2, §3, §4, §5

PC3 cells [5] = assay: Anchorage Independence/Soft Agar Assay, PC3; format: cell-based, human; conditions: soft agar, experiment n = 1
Method: as §2
as §3, with “Cells are seeded at 5×10^4 cells per well of a 6 well plate and incubated over a 12/14-Day period whilst proliferating in a 0.05% Agar/Medium cell suspension at 37° C. in a humidified atmosphere containing 5% CO2 in air.” left out
as §4, §6

ELAV-1 = assay: Validation of missense control siRNA on ELAV-1 expression; format: cell-based; conditions: missense control with 4 base pair mismatch substitutions
Text: The missense control outlined above is designed by introducing 4 base pair mismatch substitutions into the siRNA oligo sequence for ELAV-1 (Accession number xm—008947; gi 1475941).

[6] = tested on: OAS1 and GBP1 mRNA in HCT15, A549, SKOV3, DU145, PC3, A498, U251 cells; assay: Interferon response genes mRNA by QPCR after siRNA transfection; format: cell-based, human; conditions: compared to untransfected cells
Text: Inhibiting gene expression using siRNA has been associated with non-specific induction of interferon from target cells (Sledz C A et al. Nat Cell Biol. September 2003; 5(9): 834-9. 2003). Since induction of interferon may possibly affect biological assays, we control for the effect of our siRNA oligonucleotides on inducing interferon. This is examined by quantitating message RNA levels for two interferon responsive genes, namely OAS1, and GBP1, both before and after siRNA transfection.
QPCR Primers, designed by MWG Biotech as described previously, are as follows.
The levels of expression of OAS1 and GBP1 in siRNA-transfected cells are expressed as a percentage of that in untransfected control cells.

Substance: GM-CSF: a 22 kDa proinflammatory cytokine; survival factor for neutrophils and TF1 cells
- cells with sub-G1 profiles (TF1 cells [1]): 5%
- percentage of cells in the live gate (TF1 cells [2]): 77%
- percentage of cells with a sub G1 profile [3]: 9.7%

Substance: siRNA CNK/PRK: sense UCGUAGUGCUUGUACUUACtt, antisense GUAAGUACAAGCACUACGAtt (sense UCGUAGUGCUUGUACUUACTT; antisense GUAAGUACAAGCACUACGATT; chemistry not given here)
- migration of PC3 cells (PC3 cells [4]): increases the ability of cancer cells to migrate
- PERCENTAGE SURVIVAL RELATIVE TO MS, MCF7, n = 1 (MCF7 cells; experiment n = 1): 98.2%
- PERCENTAGE SURVIVAL RELATIVE TO MS, MCF7, n = 2 (MCF7 cells; experiment n = 2): 66.3%
- PERCENTAGE SURVIVAL RELATIVE TO MS, HCT15, n = 1 (HCT15 cells; experiment n = 1): 38.6%
- PERCENTAGE SURVIVAL RELATIVE TO MS, HCT15, n = 2 (HCT15 cells; experiment n = 2): 72.3%
- PERCENTAGE SURVIVAL RELATIVE TO MS, U251, n = 1 (U251 cells): 13.5%
- cell death / apoptosis in the soft agar assay (cancer cell lines): induced toxicity consistently in the HCT15 cell line
- PERCENTAGE SURVIVAL RELATIVE TO MS, A549, n = 1 (A549 cells; experiment n = 1): 91%
- PERCENTAGE SURVIVAL RELATIVE TO MS, A549, n = 2 (A549 cells; experiment n = 2): 39.6%
- PERCENTAGE SURVIVAL RELATIVE TO MS, PC3, n = 1 (PC3 cells [5]): 10%

Substance: siRNA MS: missense control siRNA, sense UGAGAAUGUGAUGCGCGUCTT, antisense GACGCGCAUCACAUUCUCATT (chemistry not given here)
- expression of ELAV-1 (ELAV-1): incapable of decreasing the expression ELAV-1
- mRNA levels of interferon response genes OAS1 and GBP1 ([6]; HCT15, A549, SKOV3, DU145 and U251 cells): does not increase mRNA levels of interferon response genes
- mRNA levels of interferon response genes OAS1 and GBP1 ([6]; PC3 and A498 cells): Some increase in mRNA of interferon response genes
